According to ChEMBL document CHEMBL1139451, “The discovery of ezetimibe: a view from outside the receptor” (2004):
Each block holds one compound with its values, some of them ahead of it. Active and inactive are the calls of the source. The calls are words filed in the database; no cut-off is given here.

Key:
Cricetinae gen. sp. [1] = test: Compound was tested for the change in liver cholesterol (CE) levels in hamster; assay type: functional, Cricetulus griseus
Cricetinae gen. sp. [2] = test: Compound was tested for the change in liver cholesterol (CE) levels in hamsters; assay type: functional, Cricetulus griseus
[3] = target: T1, Sterol O-acyltransferase 1 (Cricetulus griseus) (UniProt Q60457); test: Compound was tested for the change in liver cholesteryl ester (CE) levels by the inhibition of ACAT in hamster at 50 mg/kg p.o.; NE=No effect; assay type: functional, organism-based; set-up: dose 50 mg/kg
T1 sequence (whole entry): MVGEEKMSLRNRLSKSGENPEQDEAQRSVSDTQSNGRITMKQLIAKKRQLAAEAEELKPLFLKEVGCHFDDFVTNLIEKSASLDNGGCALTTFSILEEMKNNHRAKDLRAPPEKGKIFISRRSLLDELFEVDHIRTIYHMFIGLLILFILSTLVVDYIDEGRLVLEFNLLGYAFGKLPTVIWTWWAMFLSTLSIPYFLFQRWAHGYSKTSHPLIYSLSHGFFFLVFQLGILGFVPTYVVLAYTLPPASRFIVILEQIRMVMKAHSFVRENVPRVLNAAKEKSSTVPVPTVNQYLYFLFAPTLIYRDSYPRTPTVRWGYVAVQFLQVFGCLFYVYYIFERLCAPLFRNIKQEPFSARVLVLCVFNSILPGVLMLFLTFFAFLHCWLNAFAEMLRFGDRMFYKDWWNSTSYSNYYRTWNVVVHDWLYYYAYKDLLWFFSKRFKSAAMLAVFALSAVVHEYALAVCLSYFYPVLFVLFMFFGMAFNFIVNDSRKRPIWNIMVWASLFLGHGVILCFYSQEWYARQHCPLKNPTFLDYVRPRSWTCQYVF

[4] = target: T1, Sterol O-acyltransferase 1 (Cricetulus griseus); test: Compound was tested for the change in serum cholesterol (SC) levels by the inhibition of ACAT in hamster at 50 mg/kg p.o.; NE=No effect; assay type: functional, organism-based; set-up: dose 50 mg/kg
[5] = target: T1, Sterol O-acyltransferase 1 (Cricetulus griseus); test: Compound was tested for the change in liver cholesteryl ester (CE) levels by the inhibition of ACAT in hamster at 50 mg/kg p.o.; assay type: functional, organism-based; set-up: dose 50 mg/kg
[6] = target: T1, Sterol O-acyltransferase 1 (Cricetulus griseus); test: Compound was tested for the change in serum cholesterol (SC) levels by the inhibition of ACAT in hamster at 50 mg/kg p.o.; assay type: functional, organism-based; set-up: dose 50 mg/kg
Homo sapiens [7] = species: Homo sapiens; test: Compound was tested for the reduction in high density lipoprotein cholesterol; assay type: functional
Homo sapiens [8] = species: Homo sapiens; test: Compound was tested for the reduction in low density lipoprotein cholesterol; assay type: functional
Homo sapiens [9] = species: Homo sapiens; test: Compound was tested for the reduction in total cholesterol; assay type: functional
Rattus norvegicus = species: Rattus norvegicus; test: Compound was tested for the change in serum cholesterol (SC) level in cholesterol fed rat; assay type: functional
Monkey = test: Compound was tested for the change in serum cholesterol (SC) levels in cholesterol fed monkey; assay type: functional; settings: Cercopithecidae, in Primates
Canis familiaris = species: Canis familiaris; test: Compound was tested for the change in serum cholesterol (SC) levels in cholesterol fed dog; assay type: functional; settings: Canis lupus familiaris
Homo sapiens [10] = species: Homo sapiens; test: Compound was tested for the reduction in triglycerides; assay type: functional

Compound: CC(=O)c1ccc([C@@H]2[C@@H](CCC(=O)c3ccccc3)C(=O)N2c2ccc(C(C)=O)cc2)cc1
- ED50 (Cricetinae gen. sp. [1]): 1.9 mg/kg

Compound: O=Cc1ccc([C@@H]2[C@@H](CC[C@@H](O)c3ccccc3)C(=O)N2c2ccc(C=O)cc2)cc1
- ED50 (Cricetinae gen. sp. [1]): 5 mg/kg

Compound: O=Cc1ccc([C@@H]2[C@@H](CC[C@H](O)c3ccccc3)C(=O)N2c2ccc(C=O)cc2)cc1
- ED50 (Cricetinae gen. sp. [2]): 0.9 mg/kg

- Change in cholesterol [3]: inactive
- Change in cholesterol [4]: inactive
Compound: COc1ccc([C@@H]2[C@@H](/C=C/Cc3ccccc3)C(=O)N2c2ccc(OC)cc2)cc1

- Change in cholesterol [5]: -73%
- Change in cholesterol [6]: -20%
Compound: COc1ccc([C@@H]2[C@@H](/C=C\Cc3ccccc3)C(=O)N2c2ccc(OC)cc2)cc1

- Change in cholesterol [5]: -78%
Compound: O=C1[C@H](CCCc2ccccc2)[C@@H](c2ccc(O)cc2)N1c1ccc(O)cc1

- Change in cholesterol [5]: -78%
Compound: O=Cc1ccc([C@@H]2[C@@H](CCCc3ccc(O)cc3)C(=O)N2c2ccc(C=O)cc2)cc1

- Change in cholesterol [5]: -68%
Compound: O=Cc1ccc([C@@H]2[C@@H](CCCc3ccccc3)C(=O)N2c2ccc(O)cc2)cc1

Compound: COc1ccc([C@@H]2N(c3ccccc3)C(=O)C23CCC(c2ccc(Cl)cc2)CC3)cc1 (stereo in doubt; 17) [listing 1 of 2 here]
- ED50 (Cricetinae gen. sp. [2]): 0.66 mg/kg

- Change in cholesterol [5]: -97%
- Change in cholesterol [6]: -46%
Compound: COc1ccc([C@@H]2N(c3ccccc3)C(=O)C23CCC(c2ccc(Cl)cc2)CC3)cc1 (stereo in doubt; 17) [listing 2 of 2 here]

- Change in cholesterol [5]: No effect
- Change in cholesterol [6]: No effect
Compound: COc1ccc([C@@H]2N(c3ccccc3)C(=O)C23CCC(c2ccc(Cl)cc2)CC3)cc1 (stereo in doubt; 18)

Compound: O=C1[C@H](CC[C@H](O)c2ccc(F)cc2)[C@@H](c2ccc(O)cc2)N1c1ccc(F)cc1 [EZETIMIBE]
- Mean (Homo sapiens [7]): 1.3%
- ED50 (Cricetinae gen. sp. [1]): 0.04 mg/kg
- Mean (Homo sapiens [8]): -16.9%
- Mean (Homo sapiens [9]): -12.5%
- ED50 (Rattus norvegicus): 0.03 mg/kg
- ED50 (Monkey): 0.0005 mg/kg
- ED50 (Canis familiaris): 0.007 mg/kg
- Mean (Homo sapiens [10]): -5.7%
